Common to all, as to experiment: Binding inhibition of 125I-somatostatin, CHO cell membrane fraction
The target in experiment [1] is T1, human somatostatin receptor SSTR4 (Homo sapiens, UniProt P31391).
T1 construct: expressed in transfected cells; host or cells: CHO (dhfr-) cells, strain SSTR4-1-2
Conditions: 125I-somatostatin binding, 25° C. for 60 minutes, read-out: Activities for human somatostatin receptor (IC50 value) SSTR4. The method, then:
(§1) A human somatostatin receptor expression CHO cell strain, SSTR1-8-3, SSTR2-HS5-9, SSTR3-15-19, SSTR4-1-2 or SSTR5-32-4 (10^9), was suspended in a phosphate buffered saline containing 5mM of EDTA (PBS-EDTA). The suspension was centrifuged. To the cell pellet was added 10 ml of a homogenation buffer solution for cells (10 mM NaHCO3, 5 mM EDTA, pH=7.5). The mixture was homogenized by a Politron homogenizer and centrifuged at 400×g for 15 minutes. The supernatant obtained was farther centrifuged at 100,000×g for an hour to obtain a precipitate of the membrane fraction. The precipitate was suspended in 2 ml of a buffer solution for assay ([…], 0.1% of BSA (bovine serum albumin) and […], 1 μ/ml of pepstatin, 20 μg/ml of leupeptin, 10 μg/ml of phosphoramide, pH=7.5). The suspension was centrifuged at […] for an hour. The membrane fraction recovered as precipitate was suspended again in 20 ml of buffer solution for assay. The suspension was placed in tubes and stored at −80° C. The suspension was thawed when used, and used at every use.
(§2) The membrane fraction prepared in Example 1 was diluted with a buffer solution for assay to adjust the concentration to 3 μg/ml. The diluate was placed in tubes each in quantity of 173 μl. To this were simultaneously added 2 μl of a solution of a compound in DMSO and 25μl of a 200pM radioisotope-labeled somatostatin (^125I-somatostatin: Amersham) solution. For measurement of the maximum binding, a reaction mixture added with 2 μl of DMSO and 25μl of a 200pM ^125I-somatostatin solution was prepared. For measurement of non-specific binding, a reaction mixture added with 2 μl of a 100 μM somatostatin solution diluted in DMSO and 25 μl of a 200pM ^125I-somatostatin solution was prepared at the same time. The mixtures were allowed to react at 25° C. for 60 minutes. Then, the reaction mixture was filtered by aspiration using a GF/B glass fiber filter paper (Whatman) treated with polyethylenimine. After filtration, the radioactivity of 125I-somatostatin remaining on the filter paper was measured by a γ-counter.
(§3) The binding rate (%) of each compound was calculated by the formula: […]
(§4) (where PBM: Percent maximum Binding, B: radioactivity when a compound was added, Bo: maximum binding radioactivity, NSB: non-specific binding radioactivity). The binding rates were calculated by changing the concentrations of the compound to obtain the 50% inhibiting concentration of the compound (IC50 value) by the Hil l plots.
(§5) The activities (IC50 value, μM) of the compounds for each human somatostatin receptor obtained by the above method are shown in the following Table 5.

The target in experiment [2] is T2, human somatostatin receptor SSTR1 (Homo sapiens, UniProt P30872).
T2 construct: expressed in transfected cells; host or cells: CHO (dhfr-) cells, strain SSTR1-8-3
T2 sequence (P30872 whole entry): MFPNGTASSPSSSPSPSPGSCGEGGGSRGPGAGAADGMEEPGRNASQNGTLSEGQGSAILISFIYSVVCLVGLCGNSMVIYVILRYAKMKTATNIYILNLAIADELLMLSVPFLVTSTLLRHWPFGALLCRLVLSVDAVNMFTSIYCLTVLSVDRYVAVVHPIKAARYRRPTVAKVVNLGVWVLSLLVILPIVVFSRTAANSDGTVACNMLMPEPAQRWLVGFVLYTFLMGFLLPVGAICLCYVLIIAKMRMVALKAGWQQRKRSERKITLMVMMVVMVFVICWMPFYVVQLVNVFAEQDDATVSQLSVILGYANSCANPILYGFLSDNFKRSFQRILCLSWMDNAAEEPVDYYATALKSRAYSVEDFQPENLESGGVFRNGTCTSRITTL
Conditions: 125I-somatostatin binding, 25° C. for 60 minutes, read-out: Activities for human somatostatin receptor (IC50 value) SSTR1. The method, then:
as §1, §2, §3, §4, §5

In experiment [3] the target is T3, human somatostatin receptor SSTR2 (Homo sapiens, UniProt P30874).
T3 construct: expressed in transfected cells; host or cells: CHO (dhfr-) cells, strain SSTR2-HS5-9
T3 sequence (P30874 whole entry): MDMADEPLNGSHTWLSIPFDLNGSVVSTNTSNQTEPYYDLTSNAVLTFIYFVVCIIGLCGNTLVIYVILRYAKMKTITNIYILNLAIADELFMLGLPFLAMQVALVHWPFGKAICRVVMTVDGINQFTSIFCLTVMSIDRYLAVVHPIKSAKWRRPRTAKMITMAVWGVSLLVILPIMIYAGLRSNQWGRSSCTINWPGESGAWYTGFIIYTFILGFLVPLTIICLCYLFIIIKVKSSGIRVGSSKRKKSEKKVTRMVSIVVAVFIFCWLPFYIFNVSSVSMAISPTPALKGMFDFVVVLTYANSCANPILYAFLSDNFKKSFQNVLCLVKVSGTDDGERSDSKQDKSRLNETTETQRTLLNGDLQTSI
To be noted: 125I-somatostatin binding, 25° C. for 60 minutes, read-out: Activities for human somatostatin receptor (IC50 value) SSTR2. The method, then:
as §1, §2, §3, §4, §5

Experiment [4] has as its target T4, human somatostatin receptor SSTR5 (Homo sapiens, UniProt P35346).
T4 construct: expressed in transfected cells; host or cells: CHO (dhfr-) cells, strain SSTR5-3-2-4 (also printed SSTR5-32-4)
Conditions: 125I-somatostatin binding, 25° C. for 60 minutes, read-out: Activities for human somatostatin receptor (IC50 value) SSTR5. The method, then: as §1, §2, §3, §4, §5

Experiment [5] has as its target T5, human somatostatin receptor SSTR3 (Homo sapiens, UniProt P32745).
T5 construct: expressed in transfected cells; host or cells: CHO (dhfr-) cells, strain SSTR3-15-19
Conditions: 125I-somatostatin binding, 25° C. for 60 minutes, read-out: Activities for human somatostatin receptor (IC50 value) SSTR3. The method, then: as §1, §2, §3, §4, §5

Structures can show the parent of a compound that is named as a salt. Where only a bound is given, the exact number is not on record here.

T4 sequence (P35346 whole entry): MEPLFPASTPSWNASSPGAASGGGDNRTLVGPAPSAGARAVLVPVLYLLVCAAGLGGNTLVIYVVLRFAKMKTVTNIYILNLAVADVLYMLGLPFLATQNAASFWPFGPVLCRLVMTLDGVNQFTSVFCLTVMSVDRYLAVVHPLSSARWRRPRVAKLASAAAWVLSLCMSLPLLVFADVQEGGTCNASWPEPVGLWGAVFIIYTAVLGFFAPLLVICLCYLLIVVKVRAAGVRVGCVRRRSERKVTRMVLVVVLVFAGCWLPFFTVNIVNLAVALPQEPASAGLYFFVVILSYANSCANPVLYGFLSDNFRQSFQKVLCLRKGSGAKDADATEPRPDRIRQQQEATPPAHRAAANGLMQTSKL
T1 sequence (P31391 whole entry): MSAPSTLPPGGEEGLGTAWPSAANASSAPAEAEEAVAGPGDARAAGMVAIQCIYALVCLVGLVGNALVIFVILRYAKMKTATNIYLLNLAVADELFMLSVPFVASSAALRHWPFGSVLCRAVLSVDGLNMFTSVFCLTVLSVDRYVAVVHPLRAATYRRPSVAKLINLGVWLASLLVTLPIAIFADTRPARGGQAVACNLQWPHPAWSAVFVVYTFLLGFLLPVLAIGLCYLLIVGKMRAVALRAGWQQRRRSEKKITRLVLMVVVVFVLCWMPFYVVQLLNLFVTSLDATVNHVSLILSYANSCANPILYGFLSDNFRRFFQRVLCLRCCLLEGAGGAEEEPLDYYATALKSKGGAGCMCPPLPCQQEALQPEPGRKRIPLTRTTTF
T5 sequence (P32745 whole entry): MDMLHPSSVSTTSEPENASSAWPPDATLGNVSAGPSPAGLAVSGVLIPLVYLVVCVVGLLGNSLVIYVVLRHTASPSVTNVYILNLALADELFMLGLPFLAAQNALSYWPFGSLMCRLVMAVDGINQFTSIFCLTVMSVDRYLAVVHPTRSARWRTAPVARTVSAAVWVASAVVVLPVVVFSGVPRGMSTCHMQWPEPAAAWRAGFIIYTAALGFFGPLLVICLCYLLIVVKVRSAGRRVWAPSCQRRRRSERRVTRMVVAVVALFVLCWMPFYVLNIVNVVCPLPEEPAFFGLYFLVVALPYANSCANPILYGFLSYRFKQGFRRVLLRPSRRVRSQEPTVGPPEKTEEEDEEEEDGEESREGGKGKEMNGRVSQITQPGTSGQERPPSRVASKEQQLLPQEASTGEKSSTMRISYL

A word on the IC50: it is the concentration needed to halve the response being measured. Turning to `CC(C)(C)CN1C(=O)[C@H](CC(=O)NCc2ccccc2F)O[C@@H](c2cccc(CN)c2)c2cc(Cl)ccc21` [Example 25, (3S,5S)-N-(2-fluorobenzyl)-5-(3-aminomethylphenyl)-7-chloro-1-neopentyl-2-oxo-1,2,3,5-tetrahydro-4,1-benzoxazepine-3-acetamide•monohydrochloride], the IC50 turned out to be 4000 nM in experiment [1]; 8000 nM in experiment [2]; 6000 nM in experiment [3]; 7 nM in experiment [4]; 300 nM in experiment [5].

Take `CC(C)(C)CN1C(=O)[C@@H](CC(=O)NCc2ccccc2F)O[C@H](c2cccc(CN)c2)c2cc(Cl)ccc21` [Example 26, (3R,5R)-N-(2-fluorobenzyl)-5-(3-aminomethylphenyl)-7-chloro-1-neopentyl-2-oxo-1,2,3,5-tetrahydro-4,1-benzoxazepine-3-acetamide•monohydrochloride]: the IC50 in experiment [1] is 4000 nM; in experiment [2], 10000 nM; in experiment [3] it was > 10000 nM; in experiment [4] it was 600 nM; in experiment [5], 7000 nM.

On to `NCc1ccc(C2OC(CC(=O)NCc3ccccc3F)C(=O)N(Cc3ccc(-c4ccccc4)cc3)c3ccc(Cl)cc32)cc1` (stereo not drawn) [Example 87, 3,5-Trans-N-(2-fluorobenzyl)-5-(4-aminomethylphenyl)-1-(4-biphenylmethyl)-7-chloro-2-oxo-1,2,3,5-tetrahydro-4,1-benzoxazepine-3-acetamide•monohydrochloride], for which the 50% inhibitory concentration (IC50) in experiment [1] is 300 nM; in experiment [2] it was 800 nM; in experiment [3] it was 800 nM; in experiment [4], 1 nM; in experiment [5], 20 nM.

Turning to `COc1ccc(CN2C(=O)C(CC(=O)NCc3ccccc3F)OC(c3ccc(CN)s3)c3cc(Cl)ccc32)cc1` (stereo not drawn) [Example 91, 3,5-Trans-N-(2-fluorobenzyl)-5-(2-aminomethylthiophen-5-yl)-7-chloro-1-(4-methoxybenzyl)-2-oxo-1,2,3,5-tetrahydro-4,1-benzoxazepine-3-acetamide•monohydrochloride], the IC50 in experiment [1] was 1000 nM; in experiment [2] it was > 1000 nM; in experiment [3], > 1000 nM; in experiment [4], 7 nM; in experiment [5], 40 nM.

`CC(C)(N)c1cccc(C2OC(CC(=O)NCc3ccccc3F)C(=O)N(Cc3ccc(-c4ccccc4)cc3)c3ccc(Cl)cc32)c1` (stereo not drawn) [Example 93, 3,5-Trans-N-(2-fluorobenzyl)-5-[3-[(1-amino-1-methyl)ethyl]phenyl]-1-(4-biphenylmethyl)-7-chloro-2-oxo-1,2,3,5-tetrahydro-4,1-benzoxazepine-3-acetamide•monohydrochloride]: the IC50 turned out to be 200 nM in experiment [1]; 900 nM in experiment [2]; 500 nM in experiment [3]; 9 nM in experiment [4]; 4 nM in experiment [5].

The record behind these values is patent US6352982B1, “4,1-benzoxazepines, their analogues, and their use as somatostatin agonists” (Takeda Chemical Industries, Ltd., priority 1997, dated 2002).
